What was measured:
MDA-MB-435 = assay: Growth inhibition of human MDA-MB-435 cells assessed as cell growth at 1 uM incubated for 48 hrs by sulforhodamine B assay relative to control; assay type: functional; conditions: MDA-MB-435, 48 h, read-out: Activity
A498 = assay: Growth inhibition of human A498 cells assessed as cell growth at 1 uM incubated for 48 hrs by sulforhodamine B assay relative to control; assay type: functional; conditions: A498, 48 h, read-out: Activity
SNB-75 = assay: Growth inhibition of human SNB75 cells assessed as cell growth at 1 uM incubated for 48 hrs by sulforhodamine B assay relative to control; assay type: functional; conditions: SNB-75, 48 h, read-out: Activity
SW-620 = assay: Growth inhibition of human SW620 cells assessed as cell growth at 1 uM incubated for 48 hrs by sulforhodamine B assay relative to control; assay type: functional; conditions: SW-620, 48 h, read-out: Activity
BT-549 [1] = assay: Growth inhibition of human BT549 cells incubated for 48 hrs by sulforhodamine B assay; assay type: functional, cell-based; conditions: BT-549, 48 h
SN12C [2] = assay: Growth inhibition of human SN12C cells assessed as cell growth at 0.01 uM incubated for 48 hrs by sulforhodamine B assay relative to control; assay type: functional; conditions: read-out: Activity
SN12C [3] = assay: Growth inhibition of human SN12C cells incubated for 48 hrs by sulforhodamine B assay; assay type: functional, cell-based
MDA-MB-468 = assay: Growth inhibition of human MDA-MB-468 cells assessed as cell growth at 0.01 uM incubated for 48 hrs by sulforhodamine B assay relative to control; assay type: functional; conditions: MDA-MB-468, 48 h, read-out: Activity
A549 = assay: Growth inhibition of human A549/ATCC cells assessed as cell growth at 0.01 uM incubated for 48 hrs by sulforhodamine B assay relative to control; assay type: functional; conditions: A549, 48 h, read-out: Activity
SK-MEL-28 = assay: Growth inhibition of human SK-MEL-28 cells assessed as cell growth at 0.01 uM incubated for 48 hrs by sulforhodamine B assay relative to control; assay type: functional; conditions: SK-MEL-28, 48 h, read-out: Activity
OVCAR-5 = assay: Growth inhibition of human OVCAR5 cells assessed as cell growth at 0.01 uM incubated for 48 hrs by sulforhodamine B assay relative to control; assay type: functional; conditions: OVCAR-5, 48 h, read-out: Activity
SF-268 = assay: Growth inhibition of human SF268 cells assessed as cell growth at 0.01 uM incubated for 48 hrs by sulforhodamine B assay relative to control; assay type: functional; conditions: SF-268, 48 h, read-out: Activity
HT-29 [4] = assay: Growth inhibition of human HT-29 cells incubated for 48 hrs by sulforhodamine B assay; assay type: functional, cell-based; conditions: HT-29, 48 h
UO-31 = assay: Growth inhibition of human UO31 cells assessed as cell growth at 0.1 uM incubated for 48 hrs by sulforhodamine B assay relative to control; assay type: functional; conditions: UO-31, 48 h, read-out: Activity
HT-29 [5] = assay: Growth inhibition of human HT-29 cells assessed as cell growth at 10 uM incubated for 48 hrs by sulforhodamine B assay relative to control; assay type: functional; conditions: HT-29, 48 h, read-out: Activity
HCT-15 [6] = assay: Growth inhibition of human HCT15 cells assessed as cell growth at 0.1 uM incubated for 48 hrs by sulforhodamine B assay relative to control; assay type: functional; conditions: HCT-15, 48 h, read-out: Activity
RXF 393 = assay: Growth inhibition of human RXF393 cells assessed as cell growth at 1 uM incubated for 48 hrs by sulforhodamine B assay relative to control; assay type: functional; conditions: RXF 393, 48 h, read-out: Activity
HCT-15 [7] = assay: Growth inhibition of human HCT15 cells incubated for 48 hrs by sulforhodamine B assay; assay type: functional, cell-based; conditions: HCT-15, 48 h
K562 = assay: Growth inhibition of human K562 cells assessed as cell growth at 0.1 uM incubated for 48 hrs by sulforhodamine B assay relative to control; assay type: functional; conditions: K562, 48 h, read-out: Activity
MDA-MB-231 = assay: Growth inhibition of human MDA-MB-231 cells assessed as cell growth at 1 uM incubated for 48 hrs by sulforhodamine B assay relative to control; assay type: functional; conditions: MDA-MB-231, 48 h, read-out: Activity
MOLT-4 = assay: Growth inhibition of human MOLT4 cells assessed as cell growth at 1 uM incubated for 48 hrs by sulforhodamine B assay relative to control; assay type: functional; conditions: MOLT-4, 48 h, read-out: Activity
CCRF-CEM = assay: Growth inhibition of human CCRF-CEM cells incubated for 48 hrs by sulforhodamine B assay; assay type: functional, cell-based
OVCAR-8 [8] = assay: Growth inhibition of human OVCAR8 cells incubated for 48 hrs by sulforhodamine B assay; assay type: functional, cell-based; conditions: OVCAR-8, 48 h
OVCAR-8 [9] = assay: Growth inhibition of human OVCAR8 cells assessed as cell growth at 0.1 uM incubated for 48 hrs by sulforhodamine B assay relative to control; assay type: functional; conditions: OVCAR-8, 48 h, read-out: Activity
HT-29 [10] = assay: Growth inhibition of human HT-29 cells assessed as cell growth at 0.1 uM incubated for 48 hrs by sulforhodamine B assay relative to control; assay type: functional; conditions: HT-29, 48 h, read-out: Activity
BT-549 [11] = assay: Growth inhibition of human BT549 cells assessed as cell growth at 100 uM incubated for 48 hrs by sulforhodamine B assay relative to control; assay type: functional; conditions: BT-549, 48 h, read-out: Activity
NCI-H322M = assay: Growth inhibition of human NCI-H322M cells assessed as cell growth at 100 uM incubated for 48 hrs by sulforhodamine B assay relative to control; assay type: functional; conditions: read-out: Activity
DU-145 = assay: Growth inhibition of human DU145 cells assessed as cell growth at 0.1 uM incubated for 48 hrs by sulforhodamine B assay relative to control; assay type: functional; conditions: DU-145, 48 h, read-out: Activity
[12] = read-out: LC50 (the source's name)
[13] = read-out: pLC50 (the source's name) (converted)

## O=C(Nc1cccc(-n2cc(-c3ccncc3)c(-c3cc(O)cc(Cl)c3)n2)c1)c1ccc(N2CCOCC2)c(C(F)(F)F)c1
MDA-MB-435
  growth at 1 µM: 54%
A498
  growth at 1 µM: 98%
SNB-75
  growth at 1 µM: 45%
SW-620
  growth at 1 µM: 107%
BT-549 [1]; read-out: GI50
  GI50: 4.21 µM
BT-549 [1]; [12]
  CC50: > 100 µM
BT-549 [1]; read-out: TGI
  TGI: > 100 µM
BT-549 [1]; read-out: pGI50 (converted)
  GI50: 4.17 µM
BT-549 [1]; [13]
  CC50: > 100 µM
BT-549 [1]; read-out: pTGI (converted)
  TGI: > 100 µM
SN12C [2]
  growth at 0.01 µM: 94%
SN12C [3]; read-out: GI50
  GI50: 6.37 µM
SN12C [3]; read-out: LC50
  LC50: > 100 µM
SN12C [3]; read-out: TGI
  TGI: > 100 µM
SN12C [3]; read-out: pGI50 (converted)
  GI50: 6.31 µM
SN12C [3]; read-out: pLC50 (converted)
  LC50: > 100 µM
SN12C [3]; read-out: pTGI (converted)
  TGI: > 100 µM
MDA-MB-468
  growth at 0.01 µM: 92%
A549
  growth at 0.01 µM: 103%
SK-MEL-28
  growth at 0.01 µM: 99%
OVCAR-5
  growth at 0.01 µM: 52%
SF-268
  growth at 0.01 µM: 101%
HT-29 [4]; read-out: GI50
  GI50: 3.03 µM
HT-29 [4]; [12]
  CC50: > 100 µM
HT-29 [4]; read-out: TGI
  TGI: 11.3 µM
HT-29 [4]; read-out: pGI50 (converted)
  GI50: 3.02 µM
HT-29 [4]; [13]
  CC50: > 100 µM
HT-29 [4]; read-out: pTGI (converted)
  TGI: 11.2 µM
UO-31
  growth at 0.1 µM: 95%
HT-29 [5]
  growth at 10 µM: 16.9%
HCT-15 [6]
  growth at 0.1 µM: 94%
RXF 393
  growth at 1 µM: 13%
HCT-15 [7]; read-out: GI50
  GI50: 559 nM
HCT-15 [7]; [12]
  CC50: 84.9 µM
HCT-15 [7]; read-out: TGI
  TGI: 11.3 µM
HCT-15 [7]; read-out: pGI50 (converted)
  GI50: 562 nM
HCT-15 [7]; [13]
  CC50: 85.1 µM
HCT-15 [7]; read-out: pTGI (converted)
  TGI: 11.2 µM
K562
  growth at 0.1 µM: 100%
MDA-MB-231
  growth at 1 µM: 11%
MOLT-4
  growth at 1 µM: 54%
CCRF-CEM; read-out: GI50
  GI50: 543 nM
CCRF-CEM; [12]
  CC50: > 100 µM
CCRF-CEM; read-out: TGI
  TGI: > 100 µM
CCRF-CEM; read-out: pGI50 (converted)
  GI50: 562 nM
CCRF-CEM; [13]
  CC50: > 100 µM
CCRF-CEM; read-out: pTGI (converted)
  TGI: > 100 µM
OVCAR-8 [8]; read-out: GI50
  GI50: 15.4 µM
OVCAR-8 [8]; [12]
  CC50: > 100 µM
OVCAR-8 [8]; read-out: TGI
  TGI: > 100 µM
OVCAR-8 [8]; read-out: pGI50 (converted)
  GI50: 1.62 µM
OVCAR-8 [8]; [13]
  CC50: > 100 µM
OVCAR-8 [8]; read-out: pTGI (converted)
  TGI: > 100 µM
OVCAR-8 [9]
  growth at 0.1 µM: 101%
HT-29 [10]
  growth at 0.1 µM: 95%
BT-549 [11]
  growth at 100 µM: 17%
NCI-H322M
  growth at 100 µM: 21%
DU-145
  growth at 0.1 µM: 108%

## COc1cc(Cl)cc(-c2nn(-c3cccc(NC(=O)c4cccc(C(F)(F)F)c4)c3)cc2-c2ccncc2)c1
MDA-MB-435
  growth at 1 µM: 93%
A498
  growth at 1 µM: 51%
SNB-75
  growth at 1 µM: 70%
SW-620
  growth at 1 µM: 107%
BT-549 [1]; read-out: GI50
  GI50: > 100 µM
BT-549 [1]; [12]
  CC50: > 100 µM
BT-549 [1]; read-out: TGI
  TGI: > 100 µM
BT-549 [1]; read-out: pGI50 (converted)
  GI50: > 100 µM
BT-549 [1]; [13]
  CC50: > 100 µM
BT-549 [1]; read-out: pTGI (converted)
  TGI: > 100 µM
SN12C [2]
  growth at 0.01 µM: 99%
SN12C [3]; read-out: GI50
  GI50: > 100 µM
SN12C [3]; read-out: LC50
  LC50: > 100 µM
SN12C [3]; read-out: TGI
  TGI: > 100 µM
SN12C [3]; read-out: pGI50 (converted)
  GI50: > 100 µM
SN12C [3]; read-out: pLC50 (converted)
  LC50: > 100 µM
SN12C [3]; read-out: pTGI (converted)
  TGI: > 100 µM
MDA-MB-468
  growth at 0.01 µM: 91%
A549
  growth at 0.01 µM: 98%
SK-MEL-28
  growth at 0.01 µM: 105%
OVCAR-5
  growth at 0.01 µM: 58%
SF-268
  growth at 0.01 µM: 101%
HT-29 [4]; read-out: GI50
  GI50: 3.37 µM
HT-29 [4]; [12]
  CC50: > 100 µM
HT-29 [4]; read-out: TGI
  TGI: > 100 µM
HT-29 [4]; read-out: pGI50 (converted)
  GI50: 3.39 µM
HT-29 [4]; [13]
  CC50: > 100 µM
HT-29 [4]; read-out: pTGI (converted)
  TGI: > 100 µM
UO-31
  growth at 0.1 µM: 88%
HT-29 [5]
  growth at 10 µM: 42.5%
HCT-15 [6]
  growth at 0.1 µM: 91%
RXF 393
  growth at 1 µM: 53%
HCT-15 [7]; read-out: GI50
  GI50: 3360 nM
HCT-15 [7]; [12]
  CC50: > 100 µM
HCT-15 [7]; read-out: TGI
  TGI: > 100 µM
HCT-15 [7]; read-out: pGI50 (converted)
  GI50: 3310 nM
HCT-15 [7]; [13]
  CC50: > 100 µM
HCT-15 [7]; read-out: pTGI (converted)
  TGI: > 100 µM
K562
  growth at 0.1 µM: 112%
MDA-MB-231
  growth at 1 µM: 58%
MOLT-4
  growth at 1 µM: 72%
CCRF-CEM; read-out: GI50
  GI50: 4380 nM
CCRF-CEM; [12]
  CC50: > 100 µM
CCRF-CEM; read-out: TGI
  TGI: > 100 µM
CCRF-CEM; read-out: pGI50 (converted)
  GI50: 4370 nM
CCRF-CEM; [13]
  CC50: > 100 µM
CCRF-CEM; read-out: pTGI (converted)
  TGI: > 100 µM
OVCAR-8 [8]; read-out: GI50
  GI50: 5.58 µM
OVCAR-8 [8]; [12]
  CC50: > 100 µM
OVCAR-8 [8]; read-out: TGI
  TGI: > 100 µM
OVCAR-8 [8]; read-out: pGI50 (converted)
  GI50: 6.92 µM
OVCAR-8 [8]; [13]
  CC50: > 100 µM
OVCAR-8 [8]; read-out: pTGI (converted)
  TGI: > 100 µM
OVCAR-8 [9]
  growth at 0.1 µM: 94%
HT-29 [10]
  growth at 0.1 µM: 93%
BT-549 [11]
  growth at 100 µM: 54%
NCI-H322M
  growth at 100 µM: 75%
DU-145
  growth at 0.1 µM: 107%

Reference: ChEMBL document CHEMBL4308841, “Synthesis, in vitro antiproliferative activity, and kinase inhibitory effects of pyrazole-containing diarylureas and diarylamides” (Eur J Med Chem, 2018)
